Experimental data taken from patent US11174237B2, “2-[4-(meihylaminomethyl)phenyl]-5-fluoro- benzofuran-7-carboxamide hydrochloride polymorph, preparation method therefor and application thereof” (SHANGHAI INSTITUTE OF MATERIA MEDICA, CHINESE ACADEMY OF …, priority 2017, dated 2021).

Assay: Thermogravimetric analysis (TGA) of the crystal forms
Type: physicochemical
Protocol: 4) TGA method Instrument model: Netzsch TG 209F3, temperature range 30-400° C., scan rate 10K/min, purge gas flow rate 25 mL/min, shielding gas flow rate 15 mL/min.

For `CNCc1ccc(-c2cc3cc(F)cc(C(N)=O)c3o2)cc1.Cl` [crystal form A, 2-[4-(methylaminomethyl)phenyl]-5-fluoro-benzofuran-7-carboxamide hydrochloride], the thermal stability (conclusion from the DSC/TG experimental results) was “good thermal stability”.
With `CNCc1ccc(-c2cc3cc(F)cc(C(N)=O)c3o2)cc1.Cl` [crystal form C, 2-[4-(methylaminomethyl)phenyl]-5-fluoro-benzofuran-7-carboxamide hydrochloride] the “temperature at which the crystal form begins to decompose according to the thermogravimetric analysis” value (TG, 30-400° C., scan rate 10K/min) was 250±20 °C.
